The results in this text go back to ChEMBL document CHEMBL3763120, “Phenyl Benzenesulfonylhydrazides Exhibit Selective Indoleamine 2,3-Dioxygenase Inhibition with Potent in Vivo Pharmacodynamic Activity and Antitumor Efficacy” (J Med Chem, 2016).

The nature of data set [1]: (§1) Volume of distribution at steady state in Sprague-Dawley rat plasma at 2 mg/kg, iv by LC-MS/MS analysis. Format: ADME, organism-based. As to conditions: Sprague-Dawley, plasma, read-out: Vdss.
Data set [2] in a line: AUC (0 to infinity) in Sprague-Dawley rat plasma at 2 mg/kg, iv by LC-MS/MS analysis. Further details: dose 2 mg/kg, route intravenous, time infinity. Format: ADME, organism-based.
Data set [3] concerns the target T1, Indoleamine 2,3-dioxygenase 1 (Homo sapiens, UniProt P14902). As to the kind of experiment: Inhibition of human Indoleamine 2,3-dioxygenase using L-tryptophan as substrate by emission fluorescence analysis.
Data set [4] is described as follows: Half life in Sprague-Dawley rat plasma at 10 mg/kg, po by LC-MS/MS analysis. Format: ADME, organism-based.
A short description of data set [5]: Cmax in Sprague-Dawley rat plasma at 10 mg/kg, po by LC-MS/MS analysis. The arrangement: dose 10 mg/kg, route oral. Format: ADME, organism-based.
Data set [6] in a line: Tmax in Sprague-Dawley rat plasma at 10 mg/kg, po by LC-MS/MS analysis. Format: ADME, organism-based.
Data set [7] is described as follows: AUC (0 to infinity) in Sprague-Dawley rat plasma at 10 mg/kg, po by LC-MS/MS analysis. Format: ADME, organism-based. Further details: dose 10 mg/kg, route oral, time infinity.
A short description of data set [8]: Oral bioavailability in Sprague-Dawley rat plasma at 10 mg/kg by LC-MS/MS analysis. Format: ADME, organism-based.
Data set [9] deals with T1, Indoleamine 2,3-dioxygenase 1. Description: Inhibition of Indoleamine 2,3-dioxygenase in human HeLa cells in presence of L-tryptophan as substrate after 24 hrs in presence of L-tryptophan. Format: cell-based.
A short description of data set [10]: (§2) Half life in Sprague-Dawley rat plasma at 2 mg/kg, iv by LC-MS/MS analysis. Format: ADME, organism-based. As to conditions: Sprague-Dawley, plasma.
Data set [11] is described as follows: Clearance in Sprague-Dawley rat plasma at 2 mg/kg, iv by LC-MS/MS analysis. Format: ADME, organism-based.
In data set [12] the test system is B16-F10. Description: Antitumor activity against mouse B16F10 cells xenografted in mouse at 400 mg/kg bid dosed daily for 2 weeks. Format: functional, organism-based.
The nature of data set [13]: Drug degradation in Sprague-Dawley rat plasma within 5 mins. Format: ADME, cell-free. As to conditions: read-out: Drug degradation.
Data set [14] deals with Rattus norvegicus. Described as §1. Format: ADME, organism-based. To be noted: in vivo.
Data set [15] deals with Rattus norvegicus. The description is as §2. Format: ADME, organism-based. To be noted: in vivo.

Each structure is given as a SMILES string. The source made the active and inactive calls. The rule behind the calls is not given here.

T1 sequence (P14902 whole entry): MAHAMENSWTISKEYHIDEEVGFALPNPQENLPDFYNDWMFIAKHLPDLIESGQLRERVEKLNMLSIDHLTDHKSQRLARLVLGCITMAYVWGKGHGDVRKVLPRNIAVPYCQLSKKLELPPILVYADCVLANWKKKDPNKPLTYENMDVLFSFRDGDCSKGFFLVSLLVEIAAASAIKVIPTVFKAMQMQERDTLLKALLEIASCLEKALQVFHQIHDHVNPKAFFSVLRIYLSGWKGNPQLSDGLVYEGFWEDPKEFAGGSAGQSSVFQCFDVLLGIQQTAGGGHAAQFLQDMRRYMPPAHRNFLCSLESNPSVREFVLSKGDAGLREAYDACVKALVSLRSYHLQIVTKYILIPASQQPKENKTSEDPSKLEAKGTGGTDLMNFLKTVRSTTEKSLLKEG

By AUC(0-inf) is commonly meant the area under the concentration-time curve extrapolated to infinity. A higher AUC(0-inf) goes with more exposure. The term IC50 denotes the concentration needed to halve the response being measured. Low readings indicate inhibition by little substance, high ones a need for much substance. Usually half-life stands for how long it takes for the measured level to halve. What is called Cmax is the highest concentration seen after dosing. A word on the Tmax: it is the time from dosing to the highest level. What is called bioavailability is dose-corrected exposure relative to a reference, in per cent. Low readings indicate little systemic uptake, high ones much systemic uptake. Broadly, the EC50 is the midpoint of the concentration-response curve. The clearance is the volume of plasma or blood freed of the substance per unit of time. For `O=C1CCCN1c1ccc(S(=O)(=O)NNc2ccc(Br)cc2)cc1`, the Vd in data set [1] is 1 L/kg. The values for the AUC(0-inf) in [2] and in data set [7] were 5580 ng·h/mL and 9730 ng·h/mL, respectively. Further, inhibition in [3] was half-maximal at 68.1 nM (IC50). For the same compound, the half-life in data set [4] is 102 min; in data set [10], 90 min. Also, the concentration in data set [5] peaked (Cmax) at 2050 ng/mL. Besides, the Tmax in data set [6] is 4 h. The bioavailability in data set [8] worked out at 35%. Besides, the EC50 in [9] was found to be 89.6 nM. Moreover, the clearance in data set [11] was 6.3 mL/min/kg.
With `CC(=O)Nc1ccc(S(=O)(=O)NNc2ccc(Br)cc2)cc1`, in [1], the Vd worked out at 1.5 L/kg. In addition, the AUC(0-inf) in data set [2] amounted to 1740 ng·h/mL; in data set [7], 3220 ng·h/mL. Further, the half-life in data set [4] is 162 min; in data set [10], 210 min. The compound further displayed a Cmax in data set [5] of 1190 ng/mL. For the same compound, the Tmax in [6] came out at 0.7 h. Besides, in [8], the bioavailability turned out to be 37%. For the same compound, in [12], the result was inactive. The compound further had a clearance in data set [11] of 19.6 mL/min/kg.
In data set [3], `CC(=O)N1CCc2cc(S(=O)(=O)NNc3ccc(Br)cc3)ccc21` returned an IC50 of 34.6 nM. For the same compound, the half-maximal effective concentration (EC50) in [9] is 231 nM.
As for `O=S(=O)(NNc1ccc(Br)cc1)c1ccc2[nH]c(O)nc2c1`, the Vd in data set [1] turned out to be 6 L/kg. Besides, the figures for the AUC(0-inf) in data set [2] and in [7] were 594 ng·h/mL and 382 ng·h/mL, respectively. Moreover, in data set [3], the IC50 is 57.3 nM. The half-life in [4] is 180 min; in data set [10], 48 min. Besides, the Cmax in [5] was determined as 124 ng/mL. Besides, the Tmax in data set [6] was found to be 1.3 h. The compound also displayed a bioavailability in data set [8] of 13%. In addition, the EC50 in [9] was 63.1 nM. Moreover, in [11], the clearance was 57.1 mL/min/kg.
In [3], `O=C1CCCc2cc(S(=O)(=O)NNc3ccc(Br)cc3)ccc2N1` registered an IC50 of 112 nM. In addition, the EC50 in data set [9] turned out to be 195 nM.
For `O=C(O)c1cccc(S(=O)(=O)NNc2ccc(Br)cc2)c1`, the metabolised at 5 min in [13] was 80%.
In [3], `O=C1Nc2ccc(S(=O)(=O)NNc3ccc(Br)cc3)cc2C1=O` displayed a concentration for half-maximal inhibition (IC50) greater than 10000 nM.
Regarding `CC1(C)C(=O)Nc2ccc(S(=O)(=O)NNc3ccc(Br)cc3)cc21`, the Vd in data set [1] was determined as 13 L/kg. In addition, the AUC(0-inf) in data set [2] came to 364 ng·h/mL; in data set [7], 304 ng·h/mL. This compound returned an IC50 in [3] of 69.9 nM. The results for the half-life in data set [4] and in data set [10] were 282 min and 144 min, respectively. The concentration in data set [5] peaked (Cmax) at 72 ng/mL. Besides, the Tmax in [6] came to 1.3 h. The same compound had a bioavailability in data set [8] of 17%. Also, the EC50 in data set [9] was 36.4 nM. The compound also gave a clearance in [11] of 93.3 mL/min/kg.
Take `Cn1c(=O)n(C)c2cc(S(=O)(=O)NNc3ccc(Br)cc3)ccc21`: it took 47 nM to reach half-maximal inhibition in data set [3] (IC50). Besides, the EC50 in data set [9] turned out to be 135 nM.
On the same counts, the results for `CN1C(=O)Cc2cc(S(=O)(=O)NNc3ccc(Br)cc3)ccc21` are 75.8 nM and 365 nM.
In [3], `O=c1ccc2cc(S(=O)(=O)NNc3ccc(Br)cc3)ccc2[nH]1` showed an IC50 of 85 nM. For the same compound, the EC50 in [9] is 211 nM.
On to `Nc1nc2cc(S(=O)(=O)NNc3ccc(Br)cc3)ccc2[nH]1`, for which 122 nM corresponded to half-maximal inhibition in data set [3] (IC50). In data set [9], the EC50 worked out at 68.4 nM.
On the same counts, the results for `O=C(CCN1CCOCC1)Nc1ccc(S(=O)(=O)NNc2ccc(Br)cc2)cc1` are 77 nM and 217 nM.
As a reminder, the Vdss is the apparent volume that relates the amount in the body to the concentration in plasma or blood. In the case of `O=C1CCc2cc(S(=O)(=O)NNc3ccc(Br)cc3)ccc2N1`, the Vdss in [14] was found to be 20.8 L/kg. For the same compound, the area under the curve AUC(0-inf) in data set [2] is 1350 ng·h/mL; in [7], 763 ng·h/mL. In data set [3], this compound had an IC50 of 72.7 nM. In [4], this compound showed a half-life of 534 min. Further, the Cmax in data set [5] is 63 ng/mL. In addition, in [6], the Tmax amounted to 5.3 h. Moreover, in data set [8], the bioavailability is 11%. For the same compound, the EC50 in data set [9] came out at 67 nM. The t1/2 in [15] was 2.7 h.
As to `O=C1Nc2ccc(S(=O)(=O)NNc3ccc(Br)cc3)cc2C1(F)F`, 52.3 nM corresponded to half-maximal inhibition in data set [3] (IC50). Further, the EC50 in data set [9] turned out to be 30.6 nM.
